Data taken from ChEMBL document CHEMBL1153625, “Structure-based virtual screening approach to identify novel classes of Cdc25B phosphatase inhibitors” (Bioorg Med Chem Lett, 2009).

Experiments:
[1] = target: T1, M-phase inducer phosphatase 2 (Homo sapiens, UniProt P30305); assay: Inhibition of GST-fused Cdc25B
T1 sequence (P30305 whole entry): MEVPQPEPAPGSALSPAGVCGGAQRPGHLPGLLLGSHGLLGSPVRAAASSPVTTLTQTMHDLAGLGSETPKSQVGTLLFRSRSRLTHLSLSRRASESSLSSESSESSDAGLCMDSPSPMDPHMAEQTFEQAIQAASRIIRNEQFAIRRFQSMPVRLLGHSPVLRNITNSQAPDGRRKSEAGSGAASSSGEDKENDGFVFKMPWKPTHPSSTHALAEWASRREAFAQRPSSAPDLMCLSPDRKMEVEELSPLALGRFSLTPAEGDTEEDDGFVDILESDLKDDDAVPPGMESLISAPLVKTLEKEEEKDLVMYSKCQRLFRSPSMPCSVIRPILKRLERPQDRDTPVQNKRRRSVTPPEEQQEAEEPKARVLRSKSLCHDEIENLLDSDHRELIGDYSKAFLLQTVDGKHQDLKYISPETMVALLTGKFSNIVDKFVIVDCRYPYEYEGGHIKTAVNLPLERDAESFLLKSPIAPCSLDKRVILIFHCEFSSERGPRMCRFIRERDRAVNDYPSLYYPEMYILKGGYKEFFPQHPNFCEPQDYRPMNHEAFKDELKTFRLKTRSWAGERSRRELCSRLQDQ

[2] = target: T2, M-phase inducer phosphatase 1 (Homo sapiens, UniProt P30304); assay: Inhibition of Cdc25A
T2 sequence (P30304 whole entry): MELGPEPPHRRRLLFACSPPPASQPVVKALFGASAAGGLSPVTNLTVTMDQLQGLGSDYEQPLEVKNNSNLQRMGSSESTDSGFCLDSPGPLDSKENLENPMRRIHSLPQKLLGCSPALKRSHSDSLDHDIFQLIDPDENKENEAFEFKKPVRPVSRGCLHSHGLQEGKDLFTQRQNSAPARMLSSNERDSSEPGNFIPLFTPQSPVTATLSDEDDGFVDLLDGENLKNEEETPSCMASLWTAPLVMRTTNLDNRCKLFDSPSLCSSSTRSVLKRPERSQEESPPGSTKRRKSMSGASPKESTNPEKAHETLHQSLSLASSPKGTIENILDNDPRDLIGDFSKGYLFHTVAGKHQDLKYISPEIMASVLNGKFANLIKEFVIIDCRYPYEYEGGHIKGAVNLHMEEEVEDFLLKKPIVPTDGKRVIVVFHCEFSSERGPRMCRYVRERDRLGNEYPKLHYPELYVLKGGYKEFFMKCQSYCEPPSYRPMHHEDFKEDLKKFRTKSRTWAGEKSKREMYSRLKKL

[3] = Inhibition of YOP; design: species or system Yersinia
[4] = target: T3, Tyrosine-protein phosphatase non-receptor type 1 (Homo sapiens, UniProt P18031); assay: Inhibition of PTP1B
T3 sequence (P18031 whole entry): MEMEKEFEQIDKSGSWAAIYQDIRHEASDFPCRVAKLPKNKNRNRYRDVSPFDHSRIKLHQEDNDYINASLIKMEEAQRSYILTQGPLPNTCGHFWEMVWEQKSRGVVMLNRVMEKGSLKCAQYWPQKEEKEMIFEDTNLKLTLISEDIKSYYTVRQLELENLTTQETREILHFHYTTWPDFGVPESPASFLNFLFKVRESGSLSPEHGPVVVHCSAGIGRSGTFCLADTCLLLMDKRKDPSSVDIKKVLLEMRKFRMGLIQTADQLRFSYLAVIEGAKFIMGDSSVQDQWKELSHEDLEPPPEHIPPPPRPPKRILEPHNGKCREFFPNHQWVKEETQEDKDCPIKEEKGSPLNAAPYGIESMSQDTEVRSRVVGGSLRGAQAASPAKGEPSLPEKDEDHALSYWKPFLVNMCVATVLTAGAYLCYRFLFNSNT

[5] = target: T4, Tyrosine-protein phosphatase 1 (Saccharomyces cerevisiae S288c, UniProt P25044); assay: Inhibition of YPTP1
T4 sequence (P25044 whole entry): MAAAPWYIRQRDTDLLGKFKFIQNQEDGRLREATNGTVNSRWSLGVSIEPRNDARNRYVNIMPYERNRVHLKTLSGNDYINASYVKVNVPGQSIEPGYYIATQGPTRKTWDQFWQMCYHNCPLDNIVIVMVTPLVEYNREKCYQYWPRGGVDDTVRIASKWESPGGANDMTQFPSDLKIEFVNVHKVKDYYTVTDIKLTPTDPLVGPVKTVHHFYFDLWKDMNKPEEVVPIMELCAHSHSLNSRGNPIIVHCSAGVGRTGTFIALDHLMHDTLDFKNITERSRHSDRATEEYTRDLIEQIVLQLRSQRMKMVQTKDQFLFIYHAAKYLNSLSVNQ

Row | Structure (SMILES) | IC50 [1] [µM] | IC50 [2] [µM] | IC50 [3] [µM] | IC50 [4] [µM] | IC50 [5] [µM]
1 | O=C(Nc1ccc(Cl)c(Cl)c1)Nc1ncc2c(n1)CC(c1ccco1)CC2=O (configuration not stated) | 13.7 | 17.8 | – | – | –
2 | N#Cc1c(N)n(Cc2ccc3c(c2)OCO3)c2nc3ccccc3nc12 | 9.1 | 5.5 | – | – | –
3 | N#Cc1c(NS(=O)(=O)c2ccccc2)n(Cc2ccccc2)c2nc3ccccc3nc12 | 0.2 | 2.9 | > 100 | > 100 | > 100
4 | Nc1cccc(Nc2nc3ccccc3nc2NS(=O)(=O)c2ccc(Cl)cc2)c1 | 11.1 | 2.3 | – | – | –
5 | O=S(=O)(Nc1cc2nc3ccccc3nc2n1Cc1ccccc1)c1ccccc1 | 0.21 | 2.1 | > 100 | > 100 | > 100
6 | O=C(O)c1ccc2c(c1)C(=O)/C(=C/c1ccccc1)C2=O | 8.6 | 13.3 | – | – | –
7 | O=C1C(Cl)=C(NCCc2ccc(F)cc2)C(=O)c2ccccc21 | 9.5 | 3.9 | – | – | –
8 | O=C1C(Cl)=C(NC(Cc2ccccc2)C(=O)O)C(=O)c2ccccc21 (configuration not stated) | 3.8 | 3.5 | – | – | –
